Experimental data from publication PMC3713598, “Renal Protective Role of Xiexin Decoction with Multiple Active Ingredients Involves Inhibition of Inflammation through Downregulation of the Nuclear Factor-κB Pathway in Diabetic Rats” (Evidence-based Complementary and Alternative Medicine : eCAM, 2013).
Read-outs that look alike come from different tables or passages of the source.

Columns and labels:
diabetic nephropathy = conditions: cited from earlier work
[1] = Pharmacokinetics of XXD ingredients in diabetic rat plasma (LC-MS/MS); assay type: in vivo; conditions: for Tmax / AUC(0-t) / Cmax: male, Sprague-Dawley, po; for Tmax / shape of plasma concentration-time curve: after ig administration of XXD for 12 weeks; for Tmax: diabetic rat plasma, read-out: time of peak concentrations (converted); for AUC(0-t) / Cmax: rat
Experimental: Male Sprague-Dawley rats (90−100 g) were purchased from the Shanghai Slac Laboratory Animal Co. (Shanghai, China). The rats were housed in an air-conditioned room at 22–24°C under a 12-h dark/light cycle and were given food and water at libitum. All animal experiments were conducted in accordance with the institutional guidelines for the care and use of laboratory animals at Shanghai University of TCM. After 1-week adaptation, animals were divided into a normal control (NC) group fed a standard diet and a high-fat group received a high-fat diet. After 4 weeks, rats on the high-fat diet were treated with streptozotocin (40 mg/kg, intraperitoneal injection). […] In the clinical practice of TCM, XXD is usually prescribed at a daily dose of 46 g of herbal materials (amount to 12 g extract) for diabetic patient. When this human dose was converted into an animal dose (a person of 60 kg, and a conversion factor of 6.25 between human and rat), it was equivalent to the low dose (1.25 g/kg extract) used in this study. NC and DM were treated with vehicle (normal saline) in a matched volume. All the rats were administered the drugs via intragastric gavage (ig) once a day, for 12 weeks.
The rats treated with XXD for 12 weeks were fasted with free access to water for 12 h before the PK experiments. Blood samples were collected before dosing and at 0, 0.25, 0.5, 1, 2, 4, 6, 12, and 24 h following administration. A validated liquid chromatography-tandem mass spectrometry (LC-MS/MS) method was applied to simultaneously determine the concentration of 11 ingredients (coptisine, jatrorrhizine, berberine, palmatine, baicalin, baicalein, wogonoside, wogonin, rhein, emodin, and aloeemodin) in blood plasma. The plasma concentration-time data were analysed by noncompartmental methods with the WinNonLin software package (Pharsight Corporation, Mountain View, CA, USA) to determine PK parameters.

[2] = XXD 1.25 g/kg intragastric gavage for 12 weeks, diabetic rats, plasma, mean ± SD n = 8, read-out: AUC0–24 h
[3] = XXD 1.25 g/kg intragastric gavage for 12 weeks, diabetic rats, plasma, mean ± SD n = 8, read-out: C max
[4] = XXD 2.5 g/kg intragastric gavage for 12 weeks, diabetic rats, plasma, mean ± SD n = 8, read-out: AUC0–24 h
[5] = XXD 2.5 g/kg intragastric gavage for 12 weeks, diabetic rats, plasma, mean ± SD n = 8, read-out: C max

Row | Structure (SMILES) | Tmax [1] [min] | AUC(0-t) [1, 2] [ng·h/mL] | Cmax [1, 3] [ng/mL] | AUC(0-t) [1, 4] [ng·h/mL] | Cmax [1, 5] [ng/mL] | anti-DN effects (diabetic nephropathy) | shape of plasma concentration-time curve ([1]; diabetic rats) | other results
1 | O=C(O)[C@H]1O[C@@H](Oc2cc3oc(-c4ccccc4)cc(=O)c3c(O)c2O)[C@H](O)[C@@H](O)[C@@H]1O [Baicalin, baicalin] | 10 | 4700 ± 1730 | 1560 ± 570 | 16100 ± 9600 | 4310 ± 1710 | exhibited anti-DN effects | double peaks | renal TGF-β1 protein expression (diabetic nephropathy): downregulate
2 | O=C1c2cccc(O)c2C(=O)c2c(O)cc(CO)cc21 [aloeemodin] | – | – | – | – | – | – | – | plasma concentration relative to LLOQ ([1]; at about 0.5–2 h after ig XXD, below the LLOQ at other times): slightly higher than the lower limit of quantification
3 | COc1cc2c(cc1OC)-c1cc3ccc(OC)c(OC)c3c[n+]1CC2 [Palmatine, palmatine] | – | – | – | – | – | – | – | AUC(0-t) ([1]; in vivo, 1.25 g/kg): 113 ± 69 ng·h/mL; Cmax ([1]; in vivo, 1.25 g/kg): 17 ± 13 ng/mL; AUC(0-t) ([1]; in vivo, 2.5 g/kg): 312 ± 197 ng·h/mL; Cmax ([1]; in vivo, 2.5 g/kg): 29 ± 18 ng/mL
4 | COc1cc2c(cc1O)CC[n+]1cc3c(OC)c(OC)ccc3cc1-2 [Jatrorrhizine, jatrorrhizine] | – | 172 ± 57 | 14 ± 9 | 201 ± 152 | 21 ± 13 | – | double peaks | –
5 | Cc1cc(O)c2c(c1)C(=O)c1cc(O)cc(O)c1C2=O [Emodin, emodin] | – | – | – | – | – | exhibited anti-DN effects | – | Tmax ([1]; in vivo): 30 min; AUC(0-t) ([1]; in vivo, XXD 1.25 g/kg intragastric gavage for 12 weeks, diabetic rats, plasma, mean ± SD n = 8, read-out: AUC0–24 h): 61 ± 8 ng·h/mL; Cmax ([1]; in vivo, XXD 1.25 g/kg intragastric gavage for 12 weeks, diabetic rats, plasma, mean ± SD n = 8, read-out: C max): 13 ± 7 ng/mL; AUC(0-t) ([1]; in vivo, XXD 2.5 g/kg intragastric gavage for 12 weeks, diabetic rats, plasma, mean ± SD n = 8, read-out: AUC0–24 h): 119 ± 25 ng·h/mL; Cmax ([1]; in vivo, XXD 2.5 g/kg intragastric gavage for 12 weeks, diabetic rats, plasma, mean ± SD n = 8, read-out: C max): 22 ± 9 ng/mL

More lines, main results first:

Row | Tmax [1] [min] | AUC(0-t) [1, 2] [ng·h/mL] | Cmax [1, 3] [ng/mL] | AUC(0-t) [1, 4] [ng·h/mL] | Cmax [1, 5] [ng/mL] | Structure (SMILES) | anti-DN effects (diabetic nephropathy) | shape of plasma concentration-time curve ([1]; diabetic rats) | other results
6 | 10 | 1100 ± 216 | 961 ± 430 | 2790 ± 937 | 1750 ± 514 | O=C(O)c1cc(O)c2c(c1)C(=O)c1cccc(O)c1C2=O [Rhein, rhein] | exhibited anti-DN effects | – | renal TGF-β1 protein expression (diabetic nephropathy): downregulate
7 | 10 | 154 ± 71 | 47 ± 38 | 423 ± 307 | 149 ± 86 | COc1c(O)cc(O)c2c(=O)cc(-c3ccccc3)oc12 [Wogonin, wogonin] | – | – | –
8 | 10 | 3460 ± 894 | 1140 ± 321 | 8880 ± 2990 | 2240 ± 475 | COc1c(O[C@@H]2O[C@H](C(=O)O)[C@@H](O)[C@H](O)[C@H]2O)cc(O)c2c(=O)cc(-c3ccccc3)oc12 [Wogonoside, wogonoside] | – | double peaks | –
